Tests used:
SH-SY5Y cells = assay: Antiapoptotic assay (etoposide-induced cell death, caspase-3/7 activity); type: cell-based, human; conditions: etoposide 10 μM and peptide 10 μM added at the same time, caspase-3/7 activity after 6 h, n ≥ 3 independent experiments
Experimental: (A) Cell death was induced with etoposide (10 μM), and cells were treated with 10 μM of TFF3. Etoposide and TFF3 were added at the same time. Caspase-3/7 activity was measured after 6 h. […] Z-DEVD-FMK (50 μM; caspase-3 inhibitor) was used as the positive control. E: etoposide, E + C3I: etoposide + caspase-3 inhibitor. One-way analysis of variance (ANOVA) followed by Dunnett correction was performed to assess differences between treated cells and etoposide only. *p < 0.05, **p < 0.01.
SH-SY5Y cells were seeded (13–15 × 10^3 cells/well) in 96-well microplates in DMEM with 10% (v/v) fetal calf serum (FCS; Gibco), 2 mM L-glutamine, and 100 units/mL penicillin/streptomycin. The media was replaced with low riboflavin, complete Ham’s F12 medium with 10% (v/v) fetal calf serum, 2 mM L-glutamine, and 100 units/mL penicillin/streptomycin before the live-cell imaging. Cells were treated with the etoposide or the caspase-3 inhibitor or TFF3(C^57Acm) or TFF3 homodimer in the presence of IncuCyte caspase-3/7 green apoptosis reagent. Data were acquired using an IncuCyte ZOOM instrument with standard scan type setting (4 images per well) every 2 h for 48 h.

[1] = Stability in simulated intestinal fluid (SIF); type: in vitro ADME; conditions: pig, simulated intestinal fluid (SIF) with porcine pancreatin, pH 6.8, 15 μL of 1 mM peptide stock in 285 μL SIF, 37 °C, samples 0 min-24 h quenched with 5% aqueous TFA, RP-HPLC/LC-MS peak area as % of time 0, exponential one-phase decay fit, read-out: t1/2 in SIF
Procedure, shortened: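 Peptides incubated at 37 °C in SGF (pepsin, pH 1.3) or SIF (porcine pancreatin, pH 6.8), sampled from 0 min to 24 h. Remaining peptide quantified by RP-HPLC peak area as % of time 0, with t1/2 from one-phase exponential decay fit. Metabolites identified by LC-MS.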

CC[C@H](C)[C@@H]1NC(=O)[C@H](CCCNC(=N)N)NC(=O)[C@H](CO)NC(=O)[C@H](CC(=O)O)NC(=O)[C@H](Cc2ccccc2)NC(=O)[C@@H]2CSSC[C@H](NC(=O)[C@H](CCC(N)=O)NC(=O)[C@H](CC(N)=O)NC(=O)[C@H](C)NC(=O)[C@H](CO)NC(=O)[C@H](CC(C)C)NC(=O)CNC(=O)[C@@H](NC(=O)[C@H](Cc3ccc(O)cc3)NC(=O)[C@H](CCC(=O)O)NC(=O)[C@@H](N)CCC(=O)O)C(C)C)C(=O)N[C@@H](C)C(=O)N[C@@H](C(C)C)C(=O)N3CCC[C@H]3C(=O)N[C@@H](C)C(=O)N[C@@H](CCCCN)C(=O)N[C@@H](CC(=O)O)C(=O)N[C@@H](CCCNC(=N)N)C(=O)N[C@@H](C(C)C)C(=O)N[C@@H](CC(=O)O)C(=O)N[C@H]3CSSC[C@H](NC(=O)CNC(=O)[C@H](CCCNC(=N)N)NC(=O)[C@H](CC(N)=O)NC(=O)[C@H](CC(N)=O)NC(=O)[C@H](CSSC[C@@H](C(=O)N[C@@H](Cc4ccccc4)C(=O)N[C@@H](CCCCN)C(=O)N4CCC[C@H]4C(=O)N[C@@H](CC(C)C)C(=O)N[C@@H](CCC(N)=O)C(=O)N[C@@H](CCC(=O)O)C(=O)N[C@@H](C)C(=O)N[C@@H](CCC(=O)O)C(=O)N[C@@H](CSCNC(C)=O)C(=O)N[C@H](C(=O)N[C@@H](Cc4ccccc4)C(=O)O)[C@@H](C)O)NC(=O)[C@H](Cc4c[nH]c5ccccc45)NC(=O)[C@@H]4CCCN4C(=O)[C@H](C(C)C)NC(=O)CNC(=O)[C@@H]4CCCN4C1=O)NC(=O)[C@H](CCC(=O)O)NC(=O)[C@H](CCCCN)NC(=O)[C@@H]1CCCN1C(=O)[C@H]([C@@H](C)O)NC(=O)[C@H](C(C)C)NC(=O)[C@H](Cc1c[nH]cn1)NC(=O)[C@@H]1CCCN1C(=O)[C@H](Cc1ccc(O)cc1)NC(=O)CNC3=O)C(=O)N2 [TFF3(C^57Acm)]
reduction of etoposide-induced cell death (caspase-3/7 active objects) (SH-SY5Y cells): statistically significant (p < 0.05) reduction in cell death
half-life at 50 μM [1]: < 5 min
